Results on three molecules are retold here after patent US9868736B2, “Deubiquitinase inhibitors and methods for use of the same” (THE REGENTS OF THE UNIVERSITY OF MICHIGAN, priority 2013, dated 2018).

Series [1] has as its target T1, catalytic domain of Usp9x (Usp9xCD) (Homo sapiens, UniProt Q93008).
T1 construct: DNA corresponding to amino acids 1553-1960 of human Usp9x; His6-Smt3 (SUMO) fusion tag, ULP1-cleavable (N, cleaved yes); made in house; host or cells: E. coli
T1 sequence (Q93008 1553-1960): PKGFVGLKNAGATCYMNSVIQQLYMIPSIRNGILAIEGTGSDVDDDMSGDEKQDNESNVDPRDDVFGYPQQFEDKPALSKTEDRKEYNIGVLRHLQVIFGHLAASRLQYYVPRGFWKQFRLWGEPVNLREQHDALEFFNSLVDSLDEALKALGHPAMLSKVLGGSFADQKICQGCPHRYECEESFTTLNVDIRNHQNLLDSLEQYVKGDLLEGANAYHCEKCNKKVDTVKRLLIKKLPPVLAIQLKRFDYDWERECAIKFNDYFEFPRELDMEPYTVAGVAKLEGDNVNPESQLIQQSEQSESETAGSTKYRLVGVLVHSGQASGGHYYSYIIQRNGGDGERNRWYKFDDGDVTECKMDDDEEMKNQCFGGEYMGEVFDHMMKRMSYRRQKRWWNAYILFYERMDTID
Kind of series: Usp9xCD Ub-AMC enzyme assay. Particulars: 300 nM Usp9xCD, 30 min at 37° C. with inhibitor, 1.5 μM Ub-AMC. It counts as biochemical. The procedure: A series of chemical modifications were initiated to increase our structure activity relationship (SAR) analysis of inhibitors. […] The DNA was cloned into a ULP1-protease cleavable N-terminal His6-Smt3-fusion tag expression vector, derived from pET-28. Protein expression was induced at OD600 2.0, in TB media with Kanamycin overnight at 16° C. Cells were harvested and flash frozen before use. […] Protein was concentrated to roughly 20-40 mg/ml before aliquots were flash-frozen. All steps were performed in the presence of reducing agents, either BME, DTT, or TCEP.
Purified recombinant enzyme in buffer containing 2 mM DTT was buffer exchanged into 25 mM Tris-HCl, 50 mM NaCl and 1 mg/ml BSA using a spin column. […] IC50 values were estimated by integrating the slope of each reaction using GraphPad 6.
Two hundred and ten (210) novel chemical structures were screened for Usp9xCD inhibitory activity using this assay. […] Fluorescent scans were used to assess Usp9xCD inhibitory activity in this enzyme assay for all compounds of interest. Each assay was performed in duplicate and the linear region of each reaction curve was used to calculate IC50 values for Usp9xCD inhibition which are tabulated in Table 1.

The test system of series [2] is vemurafenib sensitive and resistant A375 melanoma cells. Description: in vitro anti-tumor efficacy in A375 melanoma cells. It counts as cell-based. The following applies: A375 cells, Usp5 knockdown. The source says:
Similar results were obtained in A375R Usp5 KD cells treated with a MEK inhibitor.

The nature of a further series: aqueous solubility. It counts as physicochemical.
Another series has as its system Mcl-1, PARP. Kind of series: Mcl-1 level and PARP cleavage in treated tumor cells. It counts as cell-based. Particulars: Z138 lymphoma cells, 1.25, 2.5 and 5 μM, 4 hours.
The conditions of series [3]: background statement; cited from earlier work.
The target of another series is Usp9x (Homo sapiens, UniProt Q93008). Description: DUB activity (HA-Ub vinyl-sulfone labelling) in lysates of treated intact cells. It counts as cell-based. Set-up: endogenous in cells; host or cells: Z138 lymphoma, MM1.S/MM1.ST myeloma, primary PCL cells, A375 and vemurafenib-resistant A375 melanoma. The following applies: Z138 lymphoma cells, 1.25, 2.5 and 5 μM, 4 hours. The procedure: In brief, control and treated cells were lysed by sonication in DUB assay buffer [50 mM Tris-HCl (pH 7.5), 5 mM MgCl2, 250 mM sucrose, 1 mM PMSF, 1× Roche proteinase inhibitory cocktail] and 20 μg of protein from the supernatant fraction (after a 14,000×g spin) were incubated with 200 nM HA-Ub vinyl-sulfone (Boston Biochem) in a final volume of 20 μl. After 90 min at 37° C., reactions were stopped with the addition of 5×-sample buffer. DUB activity was detected by SDS-PAGE resolution of the protein followed by nitrocellulose membrane transfer and immunoblotting with anti-HA.
Sequence of Usp9x (Q93008 whole entry): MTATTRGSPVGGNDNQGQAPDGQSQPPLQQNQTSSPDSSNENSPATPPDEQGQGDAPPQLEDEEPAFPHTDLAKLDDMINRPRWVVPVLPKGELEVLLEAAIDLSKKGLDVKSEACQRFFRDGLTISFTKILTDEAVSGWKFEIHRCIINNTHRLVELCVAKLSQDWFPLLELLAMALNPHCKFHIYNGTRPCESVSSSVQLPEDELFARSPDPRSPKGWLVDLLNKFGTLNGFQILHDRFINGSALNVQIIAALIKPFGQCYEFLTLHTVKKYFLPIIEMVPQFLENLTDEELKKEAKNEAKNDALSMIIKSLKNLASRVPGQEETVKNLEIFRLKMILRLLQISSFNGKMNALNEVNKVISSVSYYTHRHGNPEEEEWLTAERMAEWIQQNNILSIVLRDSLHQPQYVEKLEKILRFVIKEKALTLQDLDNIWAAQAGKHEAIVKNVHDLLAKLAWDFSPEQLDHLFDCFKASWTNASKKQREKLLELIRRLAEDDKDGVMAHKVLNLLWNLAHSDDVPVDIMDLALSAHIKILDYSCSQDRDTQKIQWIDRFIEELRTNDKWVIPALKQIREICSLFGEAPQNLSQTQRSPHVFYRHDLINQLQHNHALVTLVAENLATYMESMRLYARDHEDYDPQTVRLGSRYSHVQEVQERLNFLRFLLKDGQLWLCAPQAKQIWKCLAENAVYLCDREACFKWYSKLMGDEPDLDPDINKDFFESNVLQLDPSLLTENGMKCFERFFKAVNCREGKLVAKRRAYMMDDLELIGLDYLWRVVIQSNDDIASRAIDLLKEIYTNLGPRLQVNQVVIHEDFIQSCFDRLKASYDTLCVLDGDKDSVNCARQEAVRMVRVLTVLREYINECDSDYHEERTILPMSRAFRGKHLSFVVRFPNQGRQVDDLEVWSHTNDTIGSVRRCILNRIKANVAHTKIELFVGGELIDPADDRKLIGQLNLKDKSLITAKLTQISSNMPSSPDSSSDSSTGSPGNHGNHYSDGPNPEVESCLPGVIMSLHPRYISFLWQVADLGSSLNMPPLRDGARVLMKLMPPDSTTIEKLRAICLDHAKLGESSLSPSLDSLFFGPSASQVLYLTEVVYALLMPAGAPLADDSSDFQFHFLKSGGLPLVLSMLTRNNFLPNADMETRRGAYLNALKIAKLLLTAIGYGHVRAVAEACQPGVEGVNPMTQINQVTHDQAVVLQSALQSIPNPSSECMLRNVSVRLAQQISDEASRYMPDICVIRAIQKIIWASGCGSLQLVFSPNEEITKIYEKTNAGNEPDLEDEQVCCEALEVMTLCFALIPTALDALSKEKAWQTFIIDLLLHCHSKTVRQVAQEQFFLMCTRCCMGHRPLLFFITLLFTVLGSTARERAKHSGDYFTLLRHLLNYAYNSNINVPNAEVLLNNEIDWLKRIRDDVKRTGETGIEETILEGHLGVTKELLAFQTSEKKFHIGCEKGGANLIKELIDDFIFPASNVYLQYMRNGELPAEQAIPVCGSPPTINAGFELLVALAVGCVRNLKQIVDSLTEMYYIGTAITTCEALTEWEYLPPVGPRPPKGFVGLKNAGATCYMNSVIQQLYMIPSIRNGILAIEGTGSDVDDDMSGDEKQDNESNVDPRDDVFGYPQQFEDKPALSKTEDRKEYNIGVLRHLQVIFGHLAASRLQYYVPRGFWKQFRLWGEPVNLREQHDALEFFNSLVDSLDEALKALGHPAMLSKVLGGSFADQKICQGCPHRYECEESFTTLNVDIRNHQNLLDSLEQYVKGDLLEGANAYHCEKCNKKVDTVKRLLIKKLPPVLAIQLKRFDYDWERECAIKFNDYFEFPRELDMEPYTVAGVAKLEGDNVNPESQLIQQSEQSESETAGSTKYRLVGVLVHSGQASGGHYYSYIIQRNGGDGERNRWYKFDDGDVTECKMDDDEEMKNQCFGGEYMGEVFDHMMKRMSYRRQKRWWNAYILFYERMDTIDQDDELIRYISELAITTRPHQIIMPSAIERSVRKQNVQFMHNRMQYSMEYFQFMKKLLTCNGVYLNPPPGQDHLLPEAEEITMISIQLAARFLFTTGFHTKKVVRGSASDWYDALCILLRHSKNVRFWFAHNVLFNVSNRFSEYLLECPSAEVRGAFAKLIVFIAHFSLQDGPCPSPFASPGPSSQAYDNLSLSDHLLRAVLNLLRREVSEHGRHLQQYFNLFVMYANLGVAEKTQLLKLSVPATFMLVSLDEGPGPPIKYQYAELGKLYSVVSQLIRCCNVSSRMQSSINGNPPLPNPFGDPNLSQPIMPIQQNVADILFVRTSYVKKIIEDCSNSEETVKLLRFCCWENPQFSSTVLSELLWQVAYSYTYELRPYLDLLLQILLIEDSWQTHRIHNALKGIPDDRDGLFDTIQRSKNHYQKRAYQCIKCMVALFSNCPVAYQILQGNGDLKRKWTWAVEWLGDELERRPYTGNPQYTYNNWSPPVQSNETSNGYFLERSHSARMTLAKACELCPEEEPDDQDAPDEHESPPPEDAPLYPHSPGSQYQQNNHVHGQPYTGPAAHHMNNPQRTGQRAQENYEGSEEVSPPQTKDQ
The time required for G9-mediated Usp9x inhibition in intact multiple myeloma (MM1.S) cells and primary tumor cells from a patient with plasma cell leukemia (PCL) was investigated. MM1.ST (FIG. 1, left) or PCL (FIG. 1, right) cells were treated with 5 μM of compound for the time indicated before Usp9x activity was assessed as described above.

pIC50: −log10 of the molar value. Values after ≈ are worked out from the molar mass of the structure shown. Where two headings read alike, the source gives them in different places.

A word on the pIC50: it is the IC50 on a negative log10 scale, so that one unit is a factor of ten. A lower pIC50 goes with a large IC50. For the molecule `CCCC(NC(=O)/C(C#N)=C/c1nc(Cl)ccc1Cl)c1ccc(OCCN2CCOCC2)cc1` (stereo not shown) [drawing 26], the pIC50 in series [1] is 5.80.
Turning to `CCCS(=O)(=O)Nc1ccc(F)c(C(=O)c2c[nH]c3ncc(-c4ccc(Cl)cc4)cc23)c1F` [vemurafenib, reference compound], the “reduction of the vemurafenib IC50 concentration by Usp5 KD” value in series [2] is listed as “about 2 fold”.
In general, solubility refers to the dissolved amount per volume that the medium holds. For `CCC[C@H](NC(=O)/C(C#N)=C/c1cccc(Br)n1)c1ccccc1` [WP1130, reference compound], the negative-log IC50 (pIC50) in series [1] is 5.32. The solubility in “aqueous solubility” is 2.6 µM (≈ 0.999 µg/mL); in series [3], “poor solubility”. The “level of Mcl-1” value in the series with Mcl-1, PARP is given as “reduce the level of a downstream target of Usp9x”. For the same molecule, the “Usp9x activity in intact cells” value at Usp9x was “able to inhibit Usp9x activity in intact cells”.
